# Where two headings read alike, the source gives them in different places.
# Tests used:
# [1] = Stability during storage; assay type: physicochemical
# [2] = Sheikh et al., cited from earlier work; for Observed in vitro Pi Binding, %: pH 6.0
# [3] = mean of triplicate
# Experimental: The pH of each solution was adjusted to the desired value by the addition of concentrated hydrochloric acid or sodium hydroxide, as appropriate.
# The separation was performed on a Dionex AS11 Cation-Exchange HPLC column integrated with an Agilent Series 1100 HPLC system, and detection of the anionic species was enabled using a Dionex ED50 Electrochemical Detector, operating in Conductivity Mode. Limits of Detection and Quantitation were enhanced through the use of a Dionex Anion Self-Regenerating Suppressor. After assay-specific development and verification of assay performance were completed, the analysis of phosphate and succinate or acetate was performed by sampling the test solution and diluting it, if necessary, to a concentration within the linear range of the Assay. The sample was then injected onto the HPLC column and eluted with a sodium hydroxide gradient. Data were acquired using Agilent ChemStation® software.
# The test or control binder was dissolved in deionized water to a volume of 30 mL. The binder solution was added to the phosphorus solution to give a final volume of 600 mL. For each binder study, the phosphorus solutions were titrated by addition of concentrated HCl or NaOH to two different initial pH levels: 4 and 6. […] This was expressed as percent of the total phosphorus present in the original solution. […]
# [4] = in many patients; cited from earlier work
# [5] = cited from earlier work
# [6] = cited from earlier work; remark: listed apart in the source
# [7] = test system: parathyroid hormone (PTH) secretion; settings: maintenance dialysis patients; cited from earlier work
# [8] = Solubility in water of cationic phosphate binders (Table 1)
# [9] = 600 mg oral, cited from earlier work
# [10] = cited from earlier work; for Fractional phosphorus absorption / Net phosphorus absorption: mean ± SE
# [11] = hemodialysis or peritoneal dialysis patients; cited from earlier work
compound,measurement,setting,value
O=C(O)CCCC[C@@H]1CCSS1 [(R)-(+)-lipoic acid],stability during storage,[1],even more unstable during storage
O=C([O-])CC(O)(CC(=O)[O-])C(=O)[O-].O=C([O-])CC(O)(CC(=O)[O-])C(=O)[O-].[Ca+2].[Ca+2].[Ca+2] [Calcium Citrate],"Observed in vitro Pi Binding, %",[2],10%
same,Observed in vitro Pi Binding,[2]; pH 6.5,20% at pH 6.5 (NOTE 2)
O=C([O-])CCC(=O)[O-].[Ca+2] [Calcium Succinate],"Observed in vitro Pi Binding, %",[3]; pH 4.0,59.4%
same,"Observed in vitro Pi Binding, %",[3]; pH 6.0,94.0%
[Mg+2].[OH-].[OH-] [Magnesium Hydroxide],severe hyperkalemia,[4],≤ 8 mEq/L
same,serum Pi levels,"[5]; avg 734 mg elemental Mg/day, 3-5 weeks, control (no binders) 9.0 mg/dL",8.1 mg/dL
same,mean serum Mg levels,"[5]; avg 734 mg elemental Mg/day, dialysate Mg 1.2 to 1.8 mg/dl",4.32 mg/dL
same,patients who developed diarrhea,[5]; nine hemodialysis patients,Four of nine
same,serum Pi levels,"[6]; avg 991 mg elemental Mg daily, dialysate lacking Mg, rose from 4.3",6.1 mg/dL
same,serum Mg level (average),[6]; during Mg(OH)2 treatment,4.3 mg/dL
same,suppressing parathyroid hormone (PTH) secretion,[7],Neither the combination of oral calcium carbonate/magnesium hydroxide nor magnesium hydroxide alone was effective
[O]=[Mg] [Magnesium Oxide],Hydrophile?,[8],No
"O=C(O)CCCCC1CCSS1 (centres unmarked) [lipoic acid, 1,2-dithiolane-3-pentanoic acid]",stability during storage,[1],unstable during storage
same,safety when ingested by patients with kidney disease,[9],safe
same,"pharmacokinetics, influence of renal function",[9]; severely reduced kidney function or ESRD vs healthy,not influenced by creatinine clearance
O=C([O-])CCCC[C@@H]1CCSS1.O=C([O-])CCCC[C@@H]1CCSS1.[Mg+2] [magnesium (R)-(+)-lipoate],stability during storage,[1],stable during storage
Calcium Gluconate,"Observed in vitro Pi Binding, %",[2],90%
Magnesium Acetate,fractional absorption of dietary Pi,"[10]; 50 mEq of the salt, reduced from 77%",34%
same,Pi absorption from ingesta,"[10]; 77 mEq per os, 75% with placebo, normal subjects",28%
same,fractional magnesium absorption,[10]; highest magnesium intake,11%
same,fractional magnesium absorption,[10]; lowest magnesium intake,65%
same,Fractional phosphorus absorption,[10]; standard meal + 10.2 mEq MgAc,55.8 ± 2.8 %
same,Net phosphorus absorption,[10]; standard meal + 10.2 mEq MgAc,7.5 ± 0.4 mmol
same,Fractional phosphorus absorption,[10]; standard meal + 19.4 mEq MgAc,47.1 ± 3.4 %
same,Net phosphorus absorption,[10]; standard meal + 19.4 mEq MgAc,6.3 ± 0.5 mmol
same,Fractional phosphorus absorption,[10]; standard meal + 39.0 mEq MgAc,37.0 ± 5.4^|| %
same,Net phosphorus absorption,[10]; standard meal + 39.0 mEq MgAc,4.8 ± 0.7^|| mmol
same,Fractional phosphorus absorption,[10]; standard meal + 77.2 mEq MgAc,28.1 ± 4.8^¶ %
same,Net phosphorus absorption,[10]; standard meal + 77.2 mEq MgAc,3.8 ± 0.6^¶ mmol
choline magnesium trisalicylate,effect on serum Pi levels,[11],no effect
magnesium lipoate,stability during storage,[1],stable during storage
